Legend:
[1] = Body weight and abdomen fat weight in experimental obese rats; type: in vivo, rat; conditions: for Abdomen Fat Weight: 15-day treatment
[2] = test system: obese rat; experiment: Blood triglyceride and cholesterol in experimental obese rats; type: in vivo; conditions: 13-day treatment

Structure (SMILES) | Body Weight ([1]; 4 mg/kg, 0 day) [g] | Abdomen Fat Weight ([1]; 4 mg/kg) [g] | Body Weight ([1]; 4 mg/kg, 6 days) [g] | Body Weight ([1]; 4 mg/kg, 9 days) [g] | Body Weight ([1]; 4 mg/kg, 15 days) [g] | Body Weight ([1]; 30 mg/kg, 0 day) [g] | Abdomen Fat Weight ([1]; 30 mg/kg) [g] | Body Weight ([1]; 30 mg/kg, 6 days) [g] | Body Weight ([1]; 30 mg/kg, 9 days) [g] | Body Weight ([1]; 30 mg/kg, 15 days) [g] | body weight and abdomen fat increases ([1]; after 15-day drug treatment) | Cholesterol ([2]; 4 mg/kg) [mg/dL] | Triglyceride ([2]; 4 mg/kg) [mg/dL] | Cholesterol ([2]; 30 mg/kg) [mg/dL] | Triglyceride ([2]; 30 mg/kg) [mg/dL]
O=C(c1ccc(F)cc1)c1ccccc1NC(Cc1ccc(OCCn2c3ccccc3c3ccccc32)cc1)C(=O)O (stereo not shown) [CS-038, 2-[(2-(4-fluorobenzoyl)phenyl)amino]-3-[4-(2-carbazolylethoxy)-phenyl]-propionic acid] | 591.5 ± 130.0 | 55.8 ± 16.8 | 580.8 ± 130.2 | 575.2 ± 130.6 | 569.4 ± 122.9 | 580.5 ± 134.9 | 56.6 ± 21.1 | 586.1 ± 143.2 | 586.5 ± 144.2 | 578.3 ± 176.8 | does not induce body weight and abdomen fat increases | 98.4 ± 29.4 | 150.3 ± 52.1 | 86.6 ± 37.7 | 143.2 ± 61.8
CN(CCOc1ccc(CC2SC(=O)NC2=O)cc1)c1ccccn1 (stereo not shown) [Rosiglitazone, reference compound] | 594.9 ± 169.3 | 63.1 ± 31.4 | 604.5 ± 181.4 | 601.6 ± 183.9 | 596.4 ± 176.8 | – | – | – | – | – | – | 112.7 ± 25.5 | 273.3 ± 87.4 | – | –

— patent US7268157B2, “Substituted arylalcanoic acid derivatives as PPAR pan agonists with potent antihyperglycemic and antihyperlipidemic activity” (Shenzhen Chipscreen Biosciences, Ltd., priority 2002, dated 2007)
